# Test results taken from the NIST ThermoML archive (doi:10.1016/j.jct.2011.06.015).
# ± gives the expanded uncertainty stated by the source.
# Test: Boiling temperature at pressure P
# Conditions: 101.33 kPa; Liquid; Ebulliometric method (Recirculating still)
row,Boiling temperature at pressure P [°C],SMILES
1,136.20 ± 0.05,CCc1ccccc1 [ethylbenzene]
2,152.40 ± 0.05,CC(C)c1ccccc1 [isopropylbenzene]
3,287.33 ± 0.05,O=S1(=O)CCCC1 [sulfolane]

row,SMILES,Boiling temperature at pressure P [°C]
1,Cc1ccccc1 [toluene],110.80 ± 0.05
